In patent US12213479B2, “Monoterpenoid/phenylpropanoid-containing compounds and methods of their making and use as herbicides” (KITTRICH CORPORATION, priority 2016, dated 2025):
Entries after “also recorded” stand apart in the source; their conditions may differ.

Key:
soybeans = assay: Germination assay, soybeans coated with compound; type: in vivo, soybean; conditions: beans coated in 1% weight compound/weight bean
Text: Soybeans were susceptible to Aphis glycines infestation and were not determined to be a biotype that was resistant to infestation, which could confide results. Germination typically occurred between 3-5 days after moistening.

Soybean plants [1] = assay: Soil drench assay, soybean plants; type: in vivo; design: key to phytotoxicity (qualitative), soil drench: NOE: No Observable Effect; XXX: Dead; -: the lowest phytotoxic effect; --: phytotoxicity that did not result in death; ---: phytotoxicity that did not result in death; ------: the highest; conditions: for phytotoxicity (qualitative), soil drench: Soybean, 40 mL
Experimental: Soybean plants were planted under 1 cm of potting soil and watered every 2-3 days as necessary. Plants were grown in pots (6″ wide×4.5″ deep) with approximately 800 mL of soil for each plant. Seeds germinated approximately 3-5 days after being planted. Plants were grown in a greenhouse under a constant temperature and light environment (25±5° C., 12 hr: 12 hr light: dark cycle). Plants were grown until reaching 1-2 weeks old and 3-4 weeks old; these plants served as the “young” and “old” plants in this study, respectively.
Formulations of the various active ingredients were created using the monoterpenoid derivatives, potassium hydroxide, and Triton-X 100™ to aid in the solvation of the active ingredient. Formulations consisted of 0.5%-1% active ingredient by weight (0.5-1 g/100 ml water), with a 1:1 molar ratio of potassium hydroxide used to aid in the solvation (135-269 mg/100 mL for both thymyloxyacetic acid and carvacryloxyacetic acid). […] Formulations were applied to the soil next to the base of the stem of the plant to avoid foliar contact. Observations were performed 2 days and 3 weeks after soil drench to determine the effects of the treatments on the various types and stages of plants.

Corn plants = assay: Soil drench assay, corn plants; type: in vivo; design: key to phytotoxicity (qualitative), soil drench: NOE: No Observable Effect; XXX: Dead; -: the lowest phytotoxic effect; --: phytotoxicity that did not result in death; ---: phytotoxicity that did not result in death; ------: the highest; conditions: for phytotoxicity (qualitative), soil drench: Corn, 40 mL
Experimental: Corn plants were planted under ½″ of potting soil and watered every 2-3 days as necessary. Plants were grown in potting plants (6″ wide×4.5″ deep) with approximately 800 mL of soil for each plant. Seeds germinated approximately 4-7 days after being planted. Plants were grown in a greenhouse under a constant temperature and light environment (25±5° C., 12 hr: 12 hr light: dark cycle). Plants were grown until reaching 1-2 weeks old and 3-4 weeks old; these plants served as the “young” and “old” plants in this study, respectively. Formulations of the various active ingredients were created using the monoterpenoid derivatives, potassium hydroxide, and Triton-X 100™ to aid in the solvation of the active ingredient. […] Formulations were applied to the soil next to the base of the stem of the plant to avoid foliar contact. Observations were performed 2 days and 3 weeks after soil drench to determine the effects of the treatments on the various types and stages of plants.

Corn = assay: Pre-emergence assay, corn; type: in vivo; conditions: for pre-emergent effect on corn (words): 1%, 3-weeks after application; for qualitative growth assessment, pre-emergence: Corn, soil treated with 40 ml of 1% solution 1 day after planting, 3 weeks after application
Experimental: Corn plants were planted under ½″ of potting soil and watered every 2-3 days as necessary. Plants were grown in potting plants (6″ wide×4.5″ deep) with approximately 800 mL of soil for each plant. Plants germinated approximately 4-7 days after being planted. Plants were grown in a greenhouse under a constant temperature and light environment (25±5° C., 12 hr: 12 hr light: dark cycle).
(§1) 1-day after seeds/beans were planted, soil was drenched with 40 ml of formulation with 1% active ingredient. This was done to assess germination inhibition in the soil. […] Qualitative growth assessment was made by comparing the treated plants to the untreated controls.

Wood sorrel = assay: Pre-emergence assay, wood sorrel; type: in vivo; conditions: for pre-emergent effect on wood sorrel (words): 1%, 3-weeks after application; for qualitative growth assessment, pre-emergence: Sorrel, soil treated with 40 ml of 1% solution 1 day after planting, 3 weeks after application
Experimental: as §1

[2] = test system: Velvetleaf (Abutilon theophrasti); assay: Weed soil drench assay, velvetleaf; type: in vivo; conditions: for Percentage mortality: Velvet Leaf, 40 mL of 5% solution, soil drench; for chlorosis and phytotoxicity: velvet leaf, 40 ml of 5%, 2 days after application
Experimental: Velvetleaf plants were obtained from the wild in prairie fields in Iowa. Plants were carefully transplanted into pots (6″ wide×4.5″ deep) with approximately 800 mL of soil for each plant. Plants were maintained in a greenhouse under a constant temperature and light environment (25±5° C., 12 hr: 12 hr light: dark cycle). Plants were watered every 2-3 days as needed.
(§2) Formulations of the various active ingredients were created using the monoterpenoid derivatives, potassium hydroxide, and Triton-X 100™ to aid in the solvation of the active ingredient. Formulations included 5% active ingredient by weight (0.5-1 g/100 ml water), with a 1:1 molar ratio of potassium hydroxide used to aid in the solvation (135-269 mg/100 mL for both thymyloxyacetic acid and carvacryloxyacetic acid). […] Observations were performed 2 days and 3 weeks after soil drench to determine the effects of the treatments on the various types and stages of plants. Phytotoxicity is reported as percentage of total plants treated compared to a control treatment that was exposed to a similar formulation (without the active monoterpenoid derivatives).

[3] = test system: Lamb's Quarters (Chenopodium album); assay: Weed soil drench assay, lamb's quarters; type: in vivo; conditions: for Percentage mortality: Lamb's quarters, 40 mL of 5% solution, soil drench; for chlorosis and phytotoxicity: lamb's quarters, 40 ml of 5%, two days after application
Experimental: Lamb's quarters seeds were obtained from the Department of Agronomy at Iowa State University. Individual seeds were sown for each pot (6″ wide×4.5″ deep) with approximately 800 mL of soil for each plant. Only plants that germinated were used for the study. Plants were treated 1-2 weeks post emergence. Plants were watered every 2-3 days as needed.
as §2

[4] = test system: treated weeds from each species; assay: Weed soil drench assay, all treated weed species; type: in vivo; conditions: 5% soil drench; observed at two days after the initial treatment
Experimental: as §2

Soybean plants [5] = assay: Soil drench assay, soybean plants; type: in vivo; design: key: NOE: No Observable Effect; XXX: Dead; -: the lowest phytotoxic effect; --: phytotoxicity that did not result in death; ---: phytotoxicity that did not result in death; ------: the highest; conditions: 3-weeks after treatment, Old Plants, 7%, 40 mL
[6] = 2-days after treatment, Old Plants, 0.50%
[7] = 2-days after treatment, Old Plants, 1%
[8] = 2-days after treatment, Young Plants, 0.50%
[9] = 3-weeks after treatment, Old Plants, 0.50%
[10] = 3-weeks after treatment, Young Plants, 0.50%
[11] = 3-weeks after treatment, Young Plants, 1%
[12] = 2-days after treatment, Young Plants, 1%
[13] = 3-weeks after treatment, Old Plants, 1%
[14] = young plants, 2 days after exposure, both concentrations
[15] = listed as Carvacryloxyacetic acid

| Structure (SMILES) | inhibition of soybean germination/growth (words) (soybeans) | phytotoxicity (qualitative), soil drench (Soybean plants [1]; [6]) | phytotoxicity (qualitative), soil drench (Soybean plants [1]; [7]) | phytotoxicity (qualitative), soil drench (Soybean plants [1]; [8]) | phytotoxicity (qualitative), soil drench (Soybean plants [1]; [9]) | phytotoxicity (qualitative), soil drench (Soybean plants [1]; [10]) | phytotoxicity (qualitative), soil drench (Soybean plants [1]; [11]) | effect on corn plants, soil drench (Corn plants; 3 weeks after exposure) | phytotoxicity (qualitative), soil drench (Corn plants; [6]) | phytotoxicity (qualitative), soil drench (Corn plants; [7]) | phytotoxicity (qualitative), soil drench (Corn plants; [8]) | phytotoxicity (qualitative), soil drench (Corn plants; [12]) | phytotoxicity (qualitative), soil drench (Corn plants; [9]) | phytotoxicity (qualitative), soil drench (Corn plants; [13]) | phytotoxicity (qualitative), soil drench (Corn plants; [10]) | phytotoxicity (qualitative), soil drench (Corn plants; [11]) | effect on corn plants, soil drench (Corn plants; [14]) | pre-emergent effect on corn (words) (Corn) | qualitative growth assessment, pre-emergence (Corn) | pre-emergent effect on wood sorrel (words) (Wood sorrel) | other results |
| --- | --- | --- | --- | --- | --- | --- | --- | --- | --- | --- | --- | --- | --- | --- | --- | --- | --- | --- | --- | --- | --- |
| Cc1ccc(C(C)C)cc1OCC(=O)O [carvacryloxyacetic acid, 2-(5-isopropyl-2-methylphenoxy)acetic acid] | prevented the growth of soybeans | -- | --- | --- | XXX | XXX | XXX | caused phytotoxicity | - | -- | - | - | XXX | XXX | XXX | -- | did not show any significant effects | significant inhibition in corn growth | − − | completely prevented from growing | effect on corn plants, soil drench (Corn plants; 3 weeks, 1%): did not cause mortality; effect on corn plants, soil drench (Corn plants; older plants, 2-days, 0.5%): did not cause any significant effects; pre-emergent effect on corn (words) (Corn; [15]): significantly inhibited the growth; pre-emergent effect on wood sorrel (words) (Wood sorrel; [15]): significantly inhibited the growth; qualitative growth assessment, pre-emergence (Wood sorrel): − −; Percentage mortality ([2]; 2-days after treatment): 100%; Percentage mortality ([2]; 3-weeks after treatment): 100%; chlorosis and phytotoxicity [2]: significant chlorosis and phytotoxicity; Percentage mortality ([3]; 2-days after treatment): 100%; Percentage mortality ([3]; 3-weeks after treatment): 100%; chlorosis and phytotoxicity [3]: significant chlorosis and phytotoxicity; treated weeds killed, each species [4]: 100%; phytotoxicity (qualitative), soil drench (Soybean plants [5]): XXX |
| Cc1ccc(C(C)C)c(OCC(=O)O)c1 [thymyloxyacetic acid, 2-(2-isopropyl-5-methylphenoxy)acetic acid] | prevented the growth of soybeans | - | - | -- | - | XXX | XXX | caused phytotoxicity | -- | --- | - | - | XXX | XXX | XXX | XXX | did not show any significant effects | significantly inhibited; also recorded: capable of inhibiting the growth | − | significantly inhibited | phytotoxicity (qualitative), soil drench (Soybean plants [1]; [12]): ---; effect on soybean plants, soil drench (Soybean plants [1]; old plant, 3 weeks after exposure, 0.5%): significant wilting and chlorosis; effect on soybean plants, soil drench (Soybean plants [1]; old plants, 3 weeks after exposure, 1%): experienced mortality; mortality of soybean plants, soil drench (Soybean plants [1]; young plants, 3 weeks after exposure): 100%; effect on soybean plants, soil drench (Soybean plants [1]; young plants, 2 days after exposure, 0.5%): Minor inhibition; effect on soybean plants, soil drench (Soybean plants [1]; young plants, 2 days after exposure, 1%): major inhibition; effect on corn plants, soil drench (Corn plants; older plants, 2 days after treatment, 0.5% and 1%): significant phytotoxic effects; pre-emergent effect on wood sorrel (words) (Wood sorrel; listed as Thymyloxyacetic acid): major inhibition of growth; qualitative growth assessment, pre-emergence (Wood sorrel): −; Percentage mortality ([2]; 2-days after treatment): 100%; Percentage mortality ([2]; 3-weeks after treatment): 100%; chlorosis and phytotoxicity [2]: significant chlorosis and phytotoxicity; Percentage mortality ([3]; 2-days after treatment): 100%; Percentage mortality ([3]; 3-weeks after treatment): 100%; chlorosis and phytotoxicity [3]: significant chlorosis and phytotoxicity; treated weeds killed, each species [4]: 100%; phytotoxicity (qualitative), soil drench (Soybean plants [5]): XXX |
